# In patent publication US20140328918A1, “METHODS OF TREATING A SUBJECT AND RELATED PARTICLES, POLYMERS AND COMPOSITIONS” (CERULEAN PHARMA INC., priority 2010, published 2014):
# Values joined by “and” are separate entries in the source; they are usually repeats but may differ in a detail not shown here. Identical values can stand only once. Like-named read-outs stand apart in the source and are kept apart here.
# Assays:
# [1] = Body weight and ataxia in MDA-MB-435 tumor-bearing mice (Example 82); assay type: in vivo, female CD-1 nude mice; details: for body weight loss: weekly×two injections
# Procedure: The treatments were administered IV into the tail vein at the dose volumes stated above, beginning on post-implantation Day 21, when the mean tumor volume was 150 mm^3 or, for one group, on Day 37, when the mean tumor volume for that group was 433 mm^3.
# ADR-RES cells = assay: Efficacy in docetaxel resistant model ADR-RES (Example 85); assay type: in vivo, female nu/nu mice
# Procedure: ADR-RES cells were grown in culture to 85-90% confluency in RPMI medium supplemented with 10% fetal bovine serum (FBS), 1% glutamine and 1% penicillin/streptomycin.
# (§1) The treatments were administered IV into the tail vein at a dose volume of 10 and 20 mL/kg for 30 and 60 mg/kg respectively, beginning on post-implantation day 47, when the mean tumor volume was ca. 150 mm^3 Body weight and tumor volume were measured for three times a week during the dosing period and twice a week thereafter. In addition, animals were also monitored for any morbidity and adverse effects for three times a week during the dosing period and twice a week thereafter.
# Tumor volume was calculated with (width×width×length)/2 mm^3 formula. Efficacy was determined by tumor growth inhibition (TGI), tumor growth delay (TGD) and survival. Tumor growth inhibition (TGI) is represented as % and calculated as (1−(treated tumor volume/control tumor volume))×100 when the control group mean tumor volume reached ≧1000 mm^3 Tumor growth delay (TGD) is calculated by subtracting the day when the vehicle treated group reached the maximum tumor size 1000 mm^3 from the day when the treatment group tumor size reached 1000 mm^3.
# [2] = Tolerability in H1299 model (Example 86); assay type: in vivo, male nu/nu mice
# Procedure: (§2) The treatments were administered IV into the tail vein at a dose volume of 10 and 20 mL/kg for 30 and 60 mg/kg respectively, beginning on post-implantation day 30 when the mean tumor volume was ca. 170 mm^3 (small tumor group), and on day 37 when the mean tumor volume was ca. 440 mm^3 (large tumor group). Body weight and tumor volume were measured for three times a week during the dosing period and twice a week thereafter. In addition, animals were also monitored for any morbidity and adverse effects for three times a week during the dosing period and twice a week thereafter.
# (§3) Tumor volume was calculated with (width×width×length)/2 mm^3 formula. Efficacy was determined by tumor growth inhibition (TGI), tumor growth delay (TGD) and survival. Tumor growth inhibition (TGI) is represented as % and calculated as (1−(treated tumor volume/control tumor volume))×100 when the control group mean tumor volume reached ≧1000 mm^3. Tumor growth delay (TGD) is calculated by subtracting the day when the vehicle treated group reached the maximum tumor size 1000 mm^3 from the day when the treatment group tumor size reached 1000 mm^3.
# [3] = Tolerability in normal non-tumor-bearing mice: body weight, CBC, serum chemistry, ataxia, sciatic nerve histopathology (Example 83); assay type: in vivo, male C57BL/6 mice
# Procedure: Treatments were administered intravenously on a q7d×2 schedule, i.e., two treatments seven days apart (the first treatment was on Day one). The study ended on Day 14, six days after the 2nd treatment. Blood was collected for complete blood count (CBC) and serum chemistry. Leg muscles were collected so that nerve degeneration could be assessed from the sciatic nerve.
# [4] = Tolerability in mouse melanoma model B16.F10 (Example 84); assay type: in vivo, male C57BL/6 mice; details: 30 mg/kg, 1/wk×3
# Procedure: (§4) The treatments were administered IV into the tail vein at a dose volume of 10 and 15 ml/kg for a corresponding dose of 30 mg/kg and 45 mg/kg respectively, beginning on post-implantation day 5, when the mean tumor volume was ca. 60 mm^3 Body weight and tumor volume were measured three times a week. In addition, animals were also monitored for any morbidity and adverse effects three times a week.
# [5] = Tolerability in ADR-RES model (Example 85); assay type: in vivo, female nu/nu mice
# Procedure: as §1
# B16.F10 cells [6] = assay: Efficacy of docetaxel-2′-5050 PLGA-O-acetyl nanoparticles in mouse melanoma model B16.F10 (Example 84); assay type: in vivo, male C57BL/6 mice; details: 30 mg/kg, 1/wk×3
# Procedure: B16.F10 cells were grown in culture to 85-90% confluency in MEM-alpha medium supplemented with 10% fetal bovine serum (FBS) and 1% penicillin/streptomycin. Cells were removed from the culture flask using 0.05% trypsin (passage=4), re-suspended in PBS (density=10×10^6 cells/mL) and were implanted subcutaneously (1×10^6 cells in 100 μL MEM-alpha medium/mouse) into the right flank of male C57BL/6 mice on day 1.
# as §4
# Tumor volume was calculated with (width×width×length)/2 mm^3 formula. Efficacy was determined by tumor growth inhibition (TGI), tumor growth delay (TGD) and survival. Tumor growth inhibition (TGI) is represented as % and calculated as (1−(treated tumor volume/control tumor volume))×100 when the control group mean tumor volume reached ≧3000 mm^3. Tumor growth delay (TGD) is calculated by subtracting the day when the vehicle treated group reached the maximum tumor size 3000 mm^3 from the day when the treatment group tumor size reached 3000 mm^3. […]
# [7] = Tolerability in mouse melanoma model B16.F10 (Example 87); assay type: in vivo, male C57BL/6 mice; details: 1/wk×3
# Procedure: (§5) The treatments were administered IV into the tail vein at a dose volume of 10 ml/kg, beginning on post-implantation day 5, when the mean tumor volume was ca. 60 mm^3. Animals were monitored for any morbidity and adverse effects three times a week. In addition, body weight and tumor volume were also measured three times a week.
# B16.F10 cells [8] = assay: Efficacy of docetaxel-2′-alanine-glycolate and -2′-glycine-5050 PLGA-O-acetyl nanoparticles in mouse melanoma model B16.F10 (Example 87); assay type: in vivo, male C57BL/6 mice; details: 1/wk×3
# Procedure: B16.F10 cells were grown in culture to 85-90% confluency in MEM-alpha medium supplemented with fetal bovine serum (FBS) and 1% penicillin/streptomycin. Cells were removed from the flask using 0.05% trypsin (passage=4), re-suspended in PBS (density=10×10^6 cells/mL) and were implanted subcutaneously (1×10^6 cells in 100 μL PBS/mouse) into the right flank of male C57BL/6 mice on day 1.
# as §5
# Tumor volume was calculated with (width×width×length)/2 mm^3 formula. Efficacy was determined by tumor growth inhibition (TGI), tumor growth delay (TGD) and survival. Tumor growth inhibition (TGI) is represented as % and calculated as (1−(treated tumor volume/control tumor volume))×100 when the control group mean tumor volume reached ≧3000 mm^3. Tumor growth delay (TGD) is calculated by subtracting the day when the vehicle treated group reached the maximum tumor size 3000 mm^3 from the day when the treatment group tumor size reached 3000 mm^3. The criterion at which a mouse was removed from the study was tumor volume≧3000 mm^3
# H1299 cells = assay: Efficacy in non-small cell lung carcinoma model H1299 (Example 86); assay type: in vivo, male nu/nu mice; details: 30 mg/kg
# Procedure: H1299 cells were grown in culture to 85-90% confluency in RPMI medium supplemented with 10% fetal bovine serum (FBS), 1% glutamine and 1% penicillin/streptomycin. Cells were removed from the culture flask using 0.05% trypsin (passage=4), re-suspended in RPMI medium (density=50×10^6 cells/mL) and were implanted subcutaneously (5×10^6 cells in 100 μL RPMI medium/mouse) into the mammary fat pad area of male nu/nu mice on day 1.
# as §2, §3
# [9] = Lyophilization and reconstitution of PEGylated nanoparticles: appearance and particle size (Zetasizer); assay type: physicochemical; details: PLGA7K-PVA-PEG2K-30 and PLGA7K-PVA-PEG5K-30 PEGylated nanoparticle formulations, lyoprotectant/nanoparticle weight ratio 1:1
# Text: Nanoparticles comprising therapeutic agents were lyophilized using three different techniques. The first technique was a simple freeze drying technique where the liquid formulations were frozen with liquid nitrogen followed by drying under vacuum overnight at room temperature. During this simple lyophilization technique a Labconco® freeze dryer (available from Labconco Corp. of Kansas City, Mo.) was used. […] Instead of conventional multi-step ramping and holding, one step slow ramping was used in this approach.
# Both the rapid cycle and conventional cycle lyophilization reactions were performed using a VirTis advantage freeze dryer.
# A lyoprotectant screen was performed as follows. The critical point for design of a lyophilization cycle was to keep the temperature below the glass transition temperature (Tg′) of the lyoprotectant during the primary drying stage.
# In this example, a new strategy of using cyclodextrins and their derivatives as a cryoprotectant was tested.
# PEGylated nanoparticle formulations were analyzed for nanoparticle size prior to lyophilization, and lyophilized preparations that were completely resuspended by hand shaking were analyzed for nanoparticle size with a Zetasizer particle sizer. […] Prior to lyophilization, lyoprotectants and non-cyclic carbohydrates were added to PEGylated nanoparticle formulations at different weight ratios.
# [10] = Stability of 1H NMR sample stored at ambient temperature; assay type: physicochemical; details: 4 days
# Procedure: Docetaxel-2′-aminoethyldithioethyl carbonate.DCA [2.77 g] was dissolved in DCM (100 mL) to produce a clear solution. It was washed with saturated NaHCO3 (2×40 mL). The organic layer was separated, dried over sodium sulfate and filtered. The filtrate was concentrated to ˜10 mL, to which heptanes (100 mL) was slowly added resulting in a suspension. It was stirred for 0.5 h and filtered (30 mL heptanes wash). The filter cake was vacuum-dried at ambient temperature for 16 h to afford the free base of CPX1231 [2.17 g, yield: 88%].
# [11] = mouse, in vivo
# Procedure: The stock solution was diluted further with PBS to 0.6, 1.5, 3, 4.5 and 6 mg/mL (for a corresponding dose of 6, 15, 30, 45 and 60 mg/kg) so that all the groups received the same amount of ethanol, polysorbate 80, water and PBS. […] 5) PEGylated O-acetyl-5050-PLGA nanoparticle vehicle at the highest concentration of 6 mg/mL.
# The treatments were administered IV into the tail vein at a dose volume of 10 mL/kg, beginning on post-implantation Day 5, when the mean tumor volume was 55 mm^3. The treatments were administered 4 times, on Days 5, 8, 12 and 15 (biweekly×4 injections). On Day 17 post-tumor implantation, mice were euthanized by CO2 inhalation according to the procedure guideline. Blood was collected by cardiac puncture and put into ethylenediaminetetraacetic acid (EDTA) or serum separation blood collection tubes. Whole blood was analyzed on the day of collection for CBC analyses. After the blood clotted and was centrifuged, serum was frozen immediately on dry ice for serum chemistry analyses.
# Tolerability was determined by changes in body weight, expressed as a percent of the initial body weight on post-implantation Day 5. […] Other indices of toxicity, complete blood count (CBC) and serum chemistry were determined from blood collected from animals that were euthanized on Day 17 by CO2 inhalation, according to the procedure guideline.
# B16.F10 cells [12] = assay: Efficacy of PEGylated docetaxel-5050 PLGA-O-acetyl nanoparticles (2k/5k mPEG-PLGA), B16.F10 murine melanoma (Example 79); assay type: in vivo, male C57BL/6 mice; details: q7dx3, 30 mg/kg
# Procedure: Refer to table for detailed description of formulations.
# Tumor volume was calculated with the following equation: (width×width×length)/2 mm^3.
# [13] = Body weight changes in A2780 tumor-bearing mice (Example 78); assay type: in vivo, female CD-1 nude mice; details: Day 36
# Procedure: The stock solution was diluted further with PBS to 1.5 mg/mL (for a dose of 15 mg/kg at 10 mL/kg and 30 mg/kg at 20 mL/kg). This formulation was made within 30 minutes of administration to mice.
# The treatments were administered 2 times, on Day 8 and Day 15 (weekly×2 injections) for n=8 mice per group. […] On Day 50, the study was ended for all remaining mice. When removed from the study, mice were euthanized by CO2 inhalation.
# [14] = Body weight and ataxia in SK-OV-3 tumor-bearing mice (Example 81); assay type: in vivo, female CD-1 nude mice; details: 60 mg/kg, weekly×two injections
# B 16.F10 cells = assay: CellTiter-Glo cytotoxicity of nanoparticles formed from CDP-linker-docetaxel compounds (Example 131); assay type: cell-based, mouse; details: CellTiter-Glo, 24, 48 and 72 hours of incubation
# Procedure: To measure the cytotoxic effect of CDP-linker-docetaxel compounds, the CellTiter-Glo Luminescent Cell Viability Assay (CTG) was used. […] B 16.F10 cells, grown to 85-90% confluency in 150 cm2 flasks (passage<30), were resuspended in media (MEM-alpha, 10% HI-FBS, 1× antibiotic-antimycotic solution) and added to 96-well opaque-clear bottom plates at a concentration of 1500 cells/well in 200 μL/well. The cells were incubated at 37° C. with 5% CO2 for 24 hours. The following day, serial dilutions of 2× concentrated particles and 2× concentrated free drug were made in 12-well reservoirs with media to specified concentrations. The media in the plates was replaced with 100 μL of fresh media and 100 μL of the corresponding serially diluted drug. Three sets of plates were prepared with duplicate treatments. Following 24, 48 and 72 hours of incubation at 37° C. with 5% CO2, the media in the plates was replaced with 100 μL of fresh media and 100 μL of CTG solution, and then incubated for 5 minutes on a plate shaker at room temperature set to 450 rpm and allowed to rest for 15 minutes. Viable cells were measured by luminescence using a microtiter plate reader. The data was plotted as % viability vs. concentration and standardized to untreated cells.
# [15] = Particle properties (Zavg, PDI, Dv50, Dv90) by dynamic light scattering; assay type: physicochemical; details: polymer conjugate
# Text: Particle solution properties were characterized by dynamic light scattering (DLS) spectrometer.
molecule,measurement,setting,value
"CC(=O)O[C@@]12CO[C@@H]1C[C@H](O)[C@@]1(C)C(=O)[C@H](O)C3=C(C)[C@@H](OC(=O)[C@H](O)[C@@H](NC(=O)OC(C)(C)C)c4ccccc4)C[C@@](O)([C@@H](OC(=O)c4ccccc4)[C@H]21)C3(C)C [Free docetaxel, docetaxel]",Ataxia,[1]; 60 mg/kg,Ataxia was observed four days after the second treatment
same,survival on day 102,"ADR-RES cells; 30 mg/kg, 1/biwk×3",50%
same,survival on day 106,"ADR-RES cells; 30 mg/kg, 1/wk×2",50%
same,day mean tumor volume endpoint (≧1000 mm^3) reached,"ADR-RES cells; 60 mg/kg, 1/wk×2",106 days
same,survival on day 106,"ADR-RES cells; 60 mg/kg, 1/wk×2",50%
same,Maximum body weight loss (%),"[2]; 30 mg/kg, 1/wk×2, large tumor group",19%
same,Maximum body weight loss (%),"[2]; 30 mg/kg, 1/wk×2, small tumor group",18%
same,body weight loss / hind limb paralysis,"[2]; 30 mg/kg, large tumor group",did not cause any significant body weight loss or hind limb paralysis
same,body weight loss / hind limb paralysis,"[2]; 30 mg/kg, small tumor group",did not cause any significant body weight loss or hind limb paralysis
same,body weight loss / hind limb paralysis,"[2]; 60 mg/kg, large tumor group",significant body weight loss and severe hind limb paralysis following the second injection
same,body weight loss / hind limb paralysis,"[2]; 60 mg/kg, small tumor group",significant body weight loss and severe hind limb paralysis following the second injection
same,serum chemistry parameters,[3]; q7d×2,did not affect any serum chemistry parameter at doses up to 60 mg/kg
same,Maximum body weight loss (%),[4],12%
same,Maximum body weight loss (%),"[5]; 30 mg/kg, 1/biwk×3",9%
same,body weight loss / hind limb paralysis,"[5]; 30 mg/kg, 1/biwk×3",did not cause any significant body weight loss (<10%) or hind limb paralysis
same,Maximum body weight loss (%),"[5]; 30 mg/kg, 1/wk×2",6%
same,body weight loss / hind limb paralysis,"[5]; 30 mg/kg, 1/wk×2",did not cause any significant body weight loss (<10%) or hind limb paralysis
same,Maximum body weight loss (%),"[5]; 60 mg/kg, 1/biwk×3",21%
same,body weight loss / hind limb paralysis,"[5]; 60 mg/kg, 1/biwk×3",severe hind limb paralysis following the third injection
same,Maximum body weight loss (%),"[5]; 60 mg/kg, 1/wk×2",23%
same,body weight loss / hind limb paralysis,"[5]; 60 mg/kg, 1/wk×2",hind limb paralysis after the 2nd injection followed by recovery
same,survival on day 40,B16.F10 cells [6],50%
same,survival on day 45,B16.F10 cells [6],0%
same,Maximum body weight loss (%),[7]; 15 mg/kg,2%
same,Maximum body weight loss (%),[7]; 30 mg/kg,12% and 14%
same,survival on day 29,B16.F10 cells [8]; 15 mg/kg,50%
same,survival on day 43,B16.F10 cells [8]; 15 mg/kg,0%
same,survival on day 36,B16.F10 cells [8]; 30 mg/kg,50%
same,survival on day 40,B16.F10 cells [8]; 30 mg/kg,50%
same,survival on day 43,B16.F10 cells [8]; 30 mg/kg,0%
same,survival on day 45,B16.F10 cells [8]; 30 mg/kg,0%
same,survival on day 61,H1299 cells; large tumor group,50%
same,survival on day 80,H1299 cells; large tumor group,0%
same,survival on day 56,H1299 cells; small tumor group,50%
same,survival on day 68,H1299 cells; small tumor group,0%
"OC[C@@H](O)[C@@H](O)[C@H](O)[C@H](O)CO [Mannitol, mannitol]",maintenance of particle size after simple lyophilization,[9],"None of mannitol, sucrose and trehalose worked at the same ratio"
"OC[C@H]1O[C@@](CO)(O[C@H]2O[C@H](CO)[C@@H](O)[C@H](O)[C@H]2O)[C@@H](O)[C@@H]1O [Sucrose, sucrose]",maintenance of particle size after simple lyophilization,[9],"None of mannitol, sucrose and trehalose worked at the same ratio"
"OC[C@H]1O[C@H](O[C@H]2O[C@H](CO)[C@@H](O)[C@H](O)[C@H]2O)[C@H](O)[C@@H](O)[C@@H]1O [Trehalose, trehalose]",maintenance of particle size after simple lyophilization,[9],"None of mannitol, sucrose and trehalose worked at the same ratio"
CC(=O)O[C@@]12CO[C@@H]1C[C@H](O)[C@@]1(C)C(=O)[C@H](O)C3=C(C)[C@@H](OC(=O)[C@H](OC(=O)OCCSSCCN)[C@@H](NC(=O)OC(C)(C)C)c4ccccc4)C[C@@](O)([C@@H](OC(=O)c4ccccc4)[C@H]21)C3(C)C [docetaxel-2′-aminoethyldithioethyl carbonate],degradation of 1H NMR sample,[10],no indication of degradation
CC(=O)O[C@@]12CO[C@@H]1C[C@H](O)[C@@]1(C)C(=O)[C@H](O)C3=C(C)[C@@H](OC(=O)[C@H](O)[C@@H](NC(=O)OC(C)(C)C)c4ccccc4)C[C@@](O)([C@@H](OC(=O)c4ccccc4)[C@H]21)C3(C)C [docetaxel],body weight loss,[1]; 15 mg/kg,10%
same,body weight loss,[1]; 30 mg/kg,14%
same,serum chemistry parameters,[11],did not affect any serum chemistry parameter at doses up to 30 mg/kg
same,body weight above the initial on Day 14,[3]; 30 mg/kg q7d×2,3%
same,body weight above the initial on Day 14,[3]; 45 mg/kg q7d×2,2%
same,weight gained at the second treatment,[3]; 30 and 45 mg/kg q7d×2,up to 7%
same,day average tumor volume reached the end point of 3000 mm^3,B16.F10 cells [12],37 days
same,% of the initial body weight,[13]; 15 mg/kg,113±11%
same,% of the initial body weight,[13]; 30 mg/kg,105±9%
same,Ataxia,[14],observed in all the mice four days after the second treatment
"OC[C@H]1O[C@@H]2O[C@H]3[C@H](O)[C@@H](O)[C@@H](O[C@H]4[C@H](O)[C@@H](O)[C@@H](O[C@H]5[C@H](O)[C@@H](O)[C@@H](O[C@H]6[C@H](O)[C@@H](O)[C@@H](O[C@H]7[C@H](O)[C@@H](O)[C@@H](O[C@H]1[C@H](O)[C@H]2O)O[C@@H]7CO)O[C@@H]6CO)O[C@@H]5CO)O[C@@H]4CO)O[C@@H]3CO [α-CD, α cyclodextrin]",maintenance of particle size after simple lyophilization,[9],also worked at the same weight ratio
"OC[C@H]1O[C@@H]2O[C@H]3[C@H](O)[C@@H](O)[C@@H](O[C@H]4[C@H](O)[C@@H](O)[C@@H](O[C@H]5[C@H](O)[C@@H](O)[C@@H](O[C@H]6[C@H](O)[C@@H](O)[C@@H](O[C@H]7[C@H](O)[C@@H](O)[C@@H](O[C@H]8[C@H](O)[C@@H](O)[C@@H](O[C@H]9[C@H](O)[C@@H](O)[C@@H](O[C@H]1[C@H](O)[C@H]2O)O[C@@H]9CO)O[C@@H]8CO)O[C@@H]7CO)O[C@@H]6CO)O[C@@H]5CO)O[C@@H]4CO)O[C@@H]3CO [γ-CD, γ cyclodextrin]",maintenance of particle size after simple lyophilization,[9],also worked at the same weight ratio
CDP-2′-glycine-docetaxel,IC50,B 16.F10 cells,0.0012 to 0.0037 µM
CDP-Alanine Glycolate-Docetaxel,IC50,B 16.F10 cells,0.0004 to 0.002 µM
CDP-Gly-SN-38,particle size,[15],27.9 nm
CDP-dithiolethyloxy-carbonate-docetaxel,IC50,B 16.F10 cells,0.023 µM
CDP-hexanoate-docetaxel [CDP-hexanoate-docetaxel nanoparticles],IC50,B 16.F10 cells,0.325 to 0.44 µM
